Results from the supplement of paper PMC10307832.

How the values were obtained:
Experiment in all cases: relative viability (nuclei count vs DMSO), 5 days (fraction); higher = more cells survive
Irinotecan + Palbociclib = compound: CCc1c2c(nc3ccc(OC(=O)N4CCC(N5CCCCC5)CC4)cc13)-c1cc3c(c(=O)n1C2)COC(=O)[C@]3(O)CC [Irinotecan] + CC(=O)c1c(C)c2cnc(Nc3ccc(N4CCNCC4)cn3)nc2n(C2CCCC2)c1=O [Palbociclib] (partner 0.5 µM)
Summary of the method: (§1)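 Lung cancer cell lines were seeded in 1536-well plates and dosed by pin tool the next day, with either a single drug or a fixed anchor-drug dose combined with five library-drug doses (not always all listed) spaced in √10 steps. Five days later, one step fixed the cells and stained their nuclei (final 0.05% Triton X-100, 1% formaldehyde, 1 ug/ml Hoechst), and nuclei were counted on 4× images. Relative viability is the nuclei count in treated wells divided by the count in vehicle wells, and each value is the median of duplicate plates.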

Irinotecan + Linsitinib = compound: CCc1c2c(nc3ccc(OC(=O)N4CCC(N5CCCCC5)CC4)cc13)-c1cc3c(c(=O)n1C2)COC(=O)[C@]3(O)CC [Irinotecan] + C[C@]1(O)C[C@@H](c2nc(-c3ccc4ccc(-c5ccccc5)nc4c3)c3c(N)nccn32)C1 [Linsitinib] (partner 1 µM)
Summary of the method: as §1

Irinotecan + Vorinostat = compound: CCc1c2c(nc3ccc(OC(=O)N4CCC(N5CCCCC5)CC4)cc13)-c1cc3c(c(=O)n1C2)COC(=O)[C@]3(O)CC [Irinotecan] + O=C(CCCCCCC(=O)Nc1ccccc1)NO [Vorinostat] (partner 1 µM)
Summary of the method: as §1

MK-8033 + Linsitinib = compound: Cn1cc(-c2cnc3ccc4ccc(CS(=O)(=O)NCc5ccccn5)cc4c(=O)c3c2)cn1 [MK-8033] + C[C@]1(O)C[C@@H](c2nc(-c3ccc4ccc(-c5ccccc5)nc4c3)c3c(N)nccn32)C1 [Linsitinib] (partner 1 µM)
Summary of the method: as §1

Row | Cell Line | relative viability (Irinotecan + Palbociclib; first compound 0.6325 µM) | relative viability (Irinotecan + Palbociclib; first compound 2 µM) | relative viability (Irinotecan + Palbociclib; first compound 6.325 µM) | relative viability (Irinotecan + Palbociclib; first compound 20 µM) | relative viability (Irinotecan + Linsitinib; first compound 0.6325 µM) | relative viability (Irinotecan + Linsitinib; first compound 2 µM) | relative viability (Irinotecan + Linsitinib; first compound 6.325 µM) | relative viability (Irinotecan + Linsitinib; first compound 20 µM) | relative viability (Irinotecan + Vorinostat; first compound 0.6325 µM) | relative viability (Irinotecan + Vorinostat; first compound 2 µM) | relative viability (Irinotecan + Vorinostat; first compound 6.325 µM) | relative viability (Irinotecan + Vorinostat; first compound 20 µM) | relative viability (MK-8033 + Linsitinib; first compound 0.02 µM) | relative viability (MK-8033 + Linsitinib; first compound 0.2 µM) | relative viability (MK-8033 + Linsitinib; first compound 0.6325 µM) | relative viability (MK-8033 + Linsitinib; first compound 2 µM) | relative viability (MK-8033 + Linsitinib; first compound 0.06325 µM)
1 | LOU-NH91 | 0.509 | 0.494 | 0.418 | 0.263 | 0.834 | 0.706 | 0.431 | 0.309 | 0.837 | 0.875 | 0.315 | 0.147 | 0.93 | 0.912 | 0.89 | 0.992 | 
2 | NCI-H650 | 0.188 | 0.195 | 0.19 | 0.257 | 0.701 | 0.562 | 0.237 | 0.303 | 0.329 | 0.303 | 0.134 | 0.203 | 0.868 | 0.85 | 0.805 | 0.773 | 0.91
3 | NCI-H2023 | 0.503 | 0.385 | 0.248 | 0.077 | 0.714 | 0.503 | 0.198 | 0.0873 | 0.365 | 0.451 | 0.204 | 0.0592 | 0.651 | 0.473 | 0.536 | 0.415 | 0.533
4 | NCI-H1563 |  |  |  |  | 1.09 | 1.27 | 0.969 | 0.718 |  |  |  |  | 1.26 | 1.13 | 1.23 | 1.19 | 1.15
5 | LCLC-103H | 0.452 | 0.412 | 0.446 | 0.5 | 0.91 | 0.352 | 0.362 | 0.411 | 0.449 | 0.554 | 0.623 | 0.563 | 1.01 | 1.05 | 1.11 | 1.17 | 1.04
6 | HCC-15 | 0.41 | 0.346 | 0.182 | 0.141 | 0.458 | 0.204 | 0.152 | 0.158 | 0.452 | 0.333 | 0.252 | 0.197 | 0.763 | 0.83 | 0.911 | 0.801 | 0.851
7 | NCI-H838 | 0.261 | 0.25 | 0.207 | 0.171 | 1.17 | 0.849 | 0.372 | 0.228 | 0.776 | 0.703 | 0.378 | 0.301 | 0.988 | 0.985 | 0.98 | 0.953 | 0.98
8 | NCI-H2009 | 0.197 | 0.317 | 0.147 | 0.0702 | 0.876 | 0.493 | 0.262 | 0.221 | 0.589 | 0.379 | 0.236 | 0.135 | 1.21 | 1.07 | 1.21 | 1.11 | 1.12
9 | NCI-H2228 | 0.453 | 0.664 | 0.393 | 0.456 | 0.706 | 0.714 | 0.39 | 0.477 | 0.567 | 0.592 | 0.435 | 0.433 | 0.577 | 0.537 | 0.761 | 0.625 | 0.629
10 | NCI-H522 | 0.872 | 0.585 | 0.413 | 0.475 |  |  |  |  | 0.734 | 0.727 | 0.59 | 0.65 |  |  |  |  | 
11 | NCI-H1703 |  |  |  |  | 0.454 | 0.916 | 0.572 | 0.186 |  |  |  |  | 0.552 | 0.556 | 0.89 | 0.446 | 0.762
12 | NCI-H596 |  |  |  |  | 1.01 | 1 | 0.556 | 0.537 | 0.587 | 0.639 | 0.728 | 0.737 | 0.978 | 1.04 | 1.1 | 1.09 | 1.1
13 | NCI-H1650 | 0.184 | 0.305 | 0.285 | 0.101 |  |  |  |  | 0.518 | 0.349 | 0.351 | 0.162 |  |  |  |  | 
14 | NCI-H1648 | 0.254 | 0.303 | 0.346 | 0.355 |  |  |  |  | 0.379 | 0.423 | 0.355 | 0.279 |  |  |  |  | 
15 | NCI-H1299 |  |  |  |  | 0.721 | 0.865 | 0.463 | 0.266 |  |  |  |  | 0.997 | 0.958 | 1.05 | 0.988 | 0.997
16 | NCI-H1792 | 0.63 | 0.555 | 0.435 | 0.254 | 0.613 | 0.528 | 0.21 | 0.107 |  |  |  |  | 0.468 | 0.527 | 0.454 | 0.523 | 0.528
17 | IA-LM |  |  |  |  | 0.31 | 0.393 | 0.248 | 0.123 |  | 0.619 | 0.251 | 0.0877 | 0.522 | 0.654 | 0.61 | 0.587 | 0.465
18 | SW 900 |  | 0.42 | 0.274 | 0.416 |  |  |  |  |  | 0.564 | 0.333 | 0.373 |  |  |  |  | 
19 | NCI-H2342 | 0.557 | 0.486 | 0.509 | 0.495 |  |  |  |  | 0.955 | 0.911 | 0.836 | 0.356 |  |  |  |  | 
20 | ChaGo-K-1 | 0.256 | 0.247 | 0.22 | 0.203 |  |  |  |  | 0.443 | 0.326 | 0.268 | 0.243 |  |  |  |  | 
21 | A549 |  |  |  |  | 0.374 | 0.636 | 0.211 | 0.0965 |  |  |  |  | 0.627 | 0.52 | 0.515 | 0.581 | 0.571
